Values of other authors, collected in US20220340870A1, “FUNCTIONAL NEUROMODULATORY ASSEMBLOIDS” (The Board of Trustees of the Leland Stanford Junior …, priority 2019, published 2022).

Molecular target: Smo (Homo sapiens, UniProt Q99835)
Conditions: interacting with the Smo heptahelical domain

Smo, sequence (Q99835 28-787): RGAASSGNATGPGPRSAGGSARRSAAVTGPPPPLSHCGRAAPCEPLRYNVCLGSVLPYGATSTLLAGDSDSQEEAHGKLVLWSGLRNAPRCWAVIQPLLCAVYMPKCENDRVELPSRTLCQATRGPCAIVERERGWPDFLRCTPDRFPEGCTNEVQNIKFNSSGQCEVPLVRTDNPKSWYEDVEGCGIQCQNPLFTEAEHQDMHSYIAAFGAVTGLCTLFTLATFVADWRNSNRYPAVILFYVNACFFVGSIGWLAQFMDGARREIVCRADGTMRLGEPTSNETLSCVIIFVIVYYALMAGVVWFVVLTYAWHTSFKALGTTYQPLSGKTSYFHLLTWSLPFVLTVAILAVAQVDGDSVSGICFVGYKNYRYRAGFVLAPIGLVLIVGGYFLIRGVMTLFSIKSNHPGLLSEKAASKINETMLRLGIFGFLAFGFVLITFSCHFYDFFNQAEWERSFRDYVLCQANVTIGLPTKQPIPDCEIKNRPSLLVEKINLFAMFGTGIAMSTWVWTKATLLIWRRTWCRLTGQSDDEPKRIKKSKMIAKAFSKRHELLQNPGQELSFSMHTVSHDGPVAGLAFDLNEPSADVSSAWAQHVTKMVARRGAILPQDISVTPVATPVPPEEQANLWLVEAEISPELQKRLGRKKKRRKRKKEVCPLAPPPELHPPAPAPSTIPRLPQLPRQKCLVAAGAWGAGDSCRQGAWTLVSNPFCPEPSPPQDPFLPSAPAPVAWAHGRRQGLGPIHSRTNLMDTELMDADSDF

CNC1CCC(N(Cc2cccc(-c3ccncc3)c2)C(=O)c2sc3ccccc3c2Cl)CC1 (stereo not shown) [SAG]
Kd: 59 nM
